{"source": "patent US20080033040A1", "about": "“Methods And Compositions For Screening Involving Endothelial Cells Under Shearing Conditions” (priority 2004, published 2008)", "key": {"[1]": {"test_system": "PAEC", "assay": "Determination of intracellular superoxide by DHE, static culture (Example 2)", "assay_type": "cell-based, Porcine", "settings": "for % of cells with fluorescent nuclei, hydrogen peroxide exposed sample with inhibitor: 60 μM H2O2; for % of cells with fluorescent nuclei, hydrogen peroxide exposed sample with inhibitor / % cells with fluorescent nuclei, control sample cultured with inhibitor: apocynin 0.25 μM; for % cells with fluorescent nuclei, control sample cultured with inhibitor: no H2O2", "experimental": "Adenoviral-mediated gene transfer was conducted by infection of endothelial cells (85-95% confluence, University of Iowa Cardiovascular Research Center Cell Culture Facility) as previously described (Fang et al., 1998). Ad5CMVSOD2, Ad5CMVeNOS, and Ad5CMVeGFP were acquired from the University of Iowa Gene Transfer Vector Core (REF); Ad5CMVeGFP was used as a negative control. Porcine aortic endothelial cells were incubated with 125 PFU/cell MnSOD/eNOS/eGFP adenovirus in serum-free M199. To improve the efficiency of adenoviral uptake, the adenoviral stock was incubated for 30 minutes prior to addition to cell cultures (Kossila et al., 2002). Infected PAEC were incubated under standard conditions. After 3 hours, the virus-containing solution was removed, samples were washed with serum-free M199, and M199 supplemented with 1% Penicillin-Streptomycin and 2% FBS was added. After 45 hours of incubation (48 hours after initiation of infection) cells were prepared for experimentation.\nIncubation continued for an additional 30 minutes with 2 μM dihydroethidium (Miller et al., 1998; Carter et al., 1994) (DHE, Molecular Probes). […] Images were captured using a Zeiss Axiovert S100 fluorescent microscope. Images were collected at a standard exposure of 4500 ms.\nImage analysis was conducted with Slidebook 4 Imaging Software (company). Statistical analyses were conducted using the Student's t-Test assuming unequal variance. Values are reported as mean±standard error of the mean (SEM)."}, "[2]": {"test_system": "PAEC", "assay": "L-NAME inhibition of eNOS, superoxide by DHE, static", "assay_type": "cell-based, Porcine", "experimental": "In order to ascertain the role of eNOS in endothelial cell superoxide production, the presence of superoxide was probed in the presence of L-NAME. […] After incubation, 2 μM DHE was added to each sample and incubated for 30 minutes. […] Image analysis was conducted with Slidebook 4 Imaging Software (company). Statistical analyses were conducted using the Student's t-Test assuming unequal variance. Values are reported as mean±standard error of the mean (SEM)."}, "[3]": {"test_system": "PAEC", "assay_type": "cell-based, Porcine", "experimental": "An Immunetics cell adhesion chamber (Cambridge, Mass.) was utilized to determine PAEC behavior under shearing conditions. […] PAEC were exposed to a constant flow rate of 24.4 ml/min (2.2 dynes/cm^2) for 1.5 hours. Maintenance of PAEC at 37° C. was achieved by using a fluid reservoir contained in a constant temperature water bath (Precision). Challenged PAEC were exposed to 100 μM H2O2 in serum-free and phenyl red free M199; control PAEC were exposed to serum-free and phenyl red free M199 without H2O2.\nAfter 1 hour of incubation, 2 μM dihydroethidium was added to the media reservoir.\nHydroethidium was used to examine superoxide production of infected and non-infected PAEC under H2O2 induced oxidative stress. PAEC on glass slides were subjected to laminar flow at 24.4 ml/min (2 dynes/cm^2). The circulating fluid contained 2 μM dihydroethidium as a marker for superoxide production."}, "[4]": {"test_system": "PAEC", "assay": "Nitric oxide production (Greiss assay, DAF-FM diacetate staining)", "assay_type": "cell-based, Porcine", "settings": "H2O2 exposure, limited length of experimentation", "from_the_text": "Nitric oxide production was quantified via Greiss assay and intracellular staining with DAF-FM diacetate."}, "[5]": {"test_system": "Porcine aortic endothelial cells (PAEC)", "settings": "static"}, "[6]": {"test_system": "Porcine aortic endothelial cells (PAEC)", "settings": "shear 24.4 ml/min (2.2 dynes/cm2), 100 μM H2O2, 1.5 hours", "method": "The flow system provided for oscillatory, laminar flow across the sample. […] Due to these factors, an increase in concentration to 100 μM H2O2 was necessary for experimentation under shearing conditions.\nAn Immunetics flow cell (Li et al., 1996) was prepared by first flushing the fluid path with deionized water and then phenyl red free M199. After flushing, 50 ml of the circulating medium was added and allowed to perfuse for 5 minutes while warming to 37° C. PAEC were then placed in the flow cell and the flow cell was secured to the microscope stage. Endothelial cells were maintained at 37° C. by fluid flow through a water bath (Precision, Winchester, Va.), at a flow rate of 24.4 ml/min (2.2 dynes/cm2), for 1.5 hours under 100 μM H2O2 in circulating medium. The PAEC not exposed to H2O2 were subjected to the same flow rate in serum free and phenyl red free M199 without H2O2. […] The experiment was conducted under constant imaging, with images being captured at 0, 15, 30, 60, and 90 minutes. […] All fluorescent images were acquired with phenyl red free media to eliminate interference of phenyl red and FBS in fluorescent imaging."}, "[7]": {"test_system": "PAEC", "settings": "500 μM H2O2, 1 hour", "method": "PAEC were cultured and infected as previously described. Forty-eight hours after infection, PAEC were incubated for 1 hour under 500 μM H2O2 in serum-free M199; control groups were incubated in serum-free M199. […] After incubation, 3 μM propidium iodide (PI) was added to each sample and incubated for 8 minutes. Samples were then washed with serum-free M199 and imaged at an exposure of 2500 ms. All fluorescent images were acquired in phenyl-red free media."}, "[8]": {"test_system": "PAEC", "assay": "Determination of eNOS couple state with ascorbic acid, superoxide by DHE, static", "assay_type": "cell-based, Porcine", "settings": "60 μM H2O2, 1 mM ascorbic acid", "experimental": "In order to ascertain the role of the coupled state of eNOS in endothelial cell superoxide production, the presence of superoxide was probed in the presence of ascorbic acid. […] After incubation, 2 μM DHE was added to each sample and incubated for 30 minutes."}}, "note": "Values joined by “and” are separate entries in the source; they are usually repeats but may differ in a detail not shown here. Identical values can stand only once. Like-named read-outs stand apart in the source and are kept apart here."}
{"smiles": "OO", "note": "[H2O2, hydrogen peroxide]", "values": [{"measurement": "fold increase in percent of superoxide producing cells, control vs H2O2 stressed", "setting": "[1]; static culture", "value": 10, "unit": "fold"}, {"measurement": "% of cells having fluorescent nuclei", "setting": "[1]; static, H2O2 challenged PAEC (60 μM H2O2)", "value": "51.8±1.1", "unit": "%"}, {"measurement": "% cells with fluorescent nuclei, challenged non-inhibited group", "setting": "[2]; 60 μM H2O2, no L-NAME", "value": "23.8±3.8", "unit": "%"}, {"measurement": "% of cells with fluorescent nuclei, challenged PAEC (non-infected)", "setting": "[3]", "value": "50.3±4.1", "unit": "%"}, {"measurement": "fold increase in percent of superoxide producing cells, non-infected control vs H2O2 stressed", "setting": "[3]", "value": 30, "unit": "fold"}, {"measurement": "NO production (DAF-AM acetate intracellular staining)", "setting": "[4]", "value": "no significant increases"}, {"measurement": "% of PAEC exposed to H2O2 demonstrating intracellular superoxide", "setting": "[5]; 3 μM H2O2, 1.5 hour exposure, 2.0 μM DHE", "value": "1.2±0.2", "unit": "%"}, {"measurement": "% of PAEC found to produce intracellular superoxide", "setting": "[5]; 30 μM H2O2, 1.5 hour exposure, 2.0 μM DHE", "value": "77.1±5.5", "unit": "%"}, {"measurement": "% of PAEC exhibiting fluorescent nuclei", "setting": "[5]; 1 mM H2O2", "value": "76.1±6.8", "unit": "%"}, {"measurement": "cell membrane integrity of PAEC", "setting": "[5]; increasing H2O2 concentration, most notably at 1 mM", "value": "loss in cell membrane integrity in a dose dependant manner"}, {"measurement": "% of PAEC exposed to H2O2 demonstrating intracellular superoxide", "setting": "[6]", "value": "49.5±3.3", "unit": "%"}, {"measurement": "percent of cells with ruptured cellular membranes", "setting": "[7]", "value": "ten"}, {"measurement": "percent propidium iodide positive cells, challenged PAEC", "setting": "[7]", "value": "more than ninety"}]}
{"smiles": "COC(=O)[C@@H](N)CCCNC(=N)N[N+](=O)[O-]", "note": "[L-NAME, N^G-nitro-L-arginine methyl ester]", "values": [{"measurement": "% cells with fluorescent nuclei, control with eNOS inhibition", "setting": "[2]; no H2O2, 1 mM L-NAME", "value": "2.2±0.5% and 2.9±0.3%"}]}
{"smiles": "Oc1ncnc2[nH]ncc12", "note": "[allopurinol]", "values": [{"measurement": "% of cells with fluorescent nuclei, hydrogen peroxide exposed sample with inhibitor", "setting": "[1]; static", "value": "35.6±1.3", "unit": "%"}, {"measurement": "% cells with fluorescent nuclei, control sample cultured with inhibitor", "setting": "[1]; static", "value": "4.1±0.4", "unit": "%"}]}
{"smiles": "COc1cc(C(C)=O)ccc1O", "note": "[apocynin, Apocynin]", "values": [{"measurement": "effect on superoxide production", "setting": "[1]; apocynin 0.5 mM", "value": "minimal effects"}, {"measurement": "% of cells with fluorescent nuclei, hydrogen peroxide exposed sample with inhibitor", "setting": "[1]; static", "value": "35.1±2.0", "unit": "%"}, {"measurement": "% cells with fluorescent nuclei, control sample cultured with inhibitor", "setting": "[1]; static", "value": "14.2±1.3", "unit": "%"}]}
{"smiles": "O=C1O[C@H]([C@@H](O)CO)C(O)=C1O", "note": "[ascorbic acid, Ascorbic Acid]", "values": [{"measurement": "superoxide production in presence of ascorbic acid", "setting": "[8]", "value": "almost completely inhibited"}]}
{"smiles": "CC(C(=O)O)c1ccc(-c2ccccc2)c(F)c1", "note": "(stereo not shown) [flurbiprofen]", "values": [{"measurement": "% of cells with fluorescent nuclei, hydrogen peroxide exposed sample with inhibitor", "setting": "[1]; static", "value": "46.8±1.4", "unit": "%"}, {"measurement": "% cells with fluorescent nuclei, control sample cultured with inhibitor", "setting": "[1]; static", "value": "3.9±0.4", "unit": "%"}]}
